Values joined by “and” are separate entries in the source; they are usually repeats but may differ in a detail not shown here. Equal values may be shown once. Read-outs that look alike come from different tables or passages of the source.
Legend:
SARS-CoV-2 USA-WA1/2020 [1] = assay: Time-of-drug-addition assay in A549+ACE2 cells; type: cell-based; conditions: 12 hpi
SARS-CoV-2 USA-WA1/2020 [2] = assay: microbe, parasite or virus in culture; type: cell-based
[3] = test system: SARS-CoV-2 USA/NYU-VC-003/2020; assay: microbe, parasite or virus in culture; type: cell-based
SARS-CoV-2 = conditions: cited from earlier work
coronavirus 3CL^pro = conditions: cited from earlier work
SARS-CoV-2 USA-WA1/2020 [4] = type: cell-based; conditions: for SARS-CoV-2 infectious titers in apical washes: 10 μM basolateral, washes in 12 h increments up to 72 h; for number of SARS-CoV-2-N-expressing infected cells in HAEC: 10 μM, 72 h endpoint, immunofluorescence
BCi-NS1.1 cells = conditions: dose range up to 10 μM, 48 hours
[5] = test system: polarized human airway epithelial cultures (HAEC)
in vitro = conditions: human
COVID-19 = conditions: patients with more advanced infection, intravenous ref 55; cited from earlier work
[6] = Severe acute respiratory syndrome coronavirus 2, A549-ACE2

Compound | minimum treatment dose that led to undetectable infection levels (SARS-CoV-2 USA-WA1/2020 [1]) [µM] | EC50 (SARS-CoV-2 USA-WA1/2020 [2]) | protection of A549+ACE2 cells from virus-induced CPE (SARS-CoV-2 USA-WA1/2020 [2]) | EC50 [3] | EC90 [3] | CC50 (A549+ACE2 cells) [nM] | SARS-CoV-2 infectious titers in apical washes (SARS-CoV-2 USA-WA1/2020 [4]) | number of SARS-CoV-2-N-expressing infected cells in HAEC (SARS-CoV-2 USA-WA1/2020 [4]) | ATP levels as a measure of cell viability (BCi-NS1.1 cells) | protection of A549+ACE2 cells from ring syncytia formation (CPE) (SARS-CoV-2 USA-WA1/2020 [2]) | adverse effects on morphology of HAEC (histology) [5] | trans-epithelial resistance (TEER) over time [5] | also measured
CC(C)C[C@H](NC(=O)OCc1ccccc1)C(=O)N[C@@H](CC1CCNC1=O)C(O)S(=O)(=O)[O-].[Na+] (some centres unmarked) [GC-376] | 10 | 623 nM and 696 nM | unable to protect cells from virus-induced CPE | 529 nM | 2730 nM | > 10000 |  |  |  |  |  |  | EC90 (SARS-CoV-2 USA-WA1/2020 [2]): 4550 nM and 5250 nM; EC50 (SARS-CoV-2; Vero E6 cells ref 11): 900 nM
COc1cccc2[nH]c(C(=O)N[C@@H](CC(C)C)C(=O)N[C@@H](C[C@@H]3CCNC3=O)C(=O)CO)cc12 [PF-00835231] | 3 |  | fully protected | 184 nM and 326 nM | 591 nM and 1170 nM | > 10000 | viral titers below the limit of detection at most time points | number of infected cells significantly reduced | did not detect a decrease in ATP | fully protected | Neither drug caused measurable adverse effects on the morphology | did not observe this trend | inhibition of 3CL^pro protease activity (coronavirus 3CL^pro): potent inhibition; change in antiviral efficacy when blocking MDR1 activity (SARS-CoV-2 USA-WA1/2020 [4]): no changes in antiviral efficacy; change in antiviral efficacy when blocking MDR1 activity (SARS-CoV-2 USA-WA1/2020 [2]): no changes in antiviral efficacy; effect of chemical inhibition of MDR1 on antiviral efficacy (SARS-CoV-2; Vero E6 cells ref 9, 14): significantly increased; EC50 (SARS-CoV-2; Vero E6 cells ref 9): 270 nM
CCC(CC)COC(=O)[C@H](C)N[P@](=O)(OC[C@H]1O[C@@](C#N)(c2ccc3c(N)ncnn23)[C@H](O)[C@@H]1O)Oc1ccccc1 [remdesivir] | 10 | 238 nM |  | 238 nM |  |  | viral titers below the limit of detection at most time points | number of infected cells significantly reduced | caused a reduction in ATP levels compared to carrier control, albeit not statistically significantly | fully protected | Neither drug caused measurable adverse effects on the morphology | negatively impacted TEER over time, albeit not statistically significantly | CC50 (in vitro): > 10000 nM; patients with benefit (COVID-19): 68%; EC50 (SARS-CoV-2 USA-WA1/2020 [2]; [6]): 442 nM; EC50 [3, 6]: 283 nM; EC90 [3, 6]: 589 nM

From paper PMC7457613 (bioRxiv, 2021)
